Reference: ChEMBL document CHEMBL3862023, “Synthesis of N-aryl and N-arylcarbamoylamino derivatives of 1,3-diazinane-5-carboxamide and their activity against glioblastoma LN-229 cell line” (Bioorg Med Chem, 2016)

Key:
[1] = Solubility of the compound in isopropanol; assay type: physicochemical
[2] = Cytotoxicity against human LN229 cells assessed as concentration required for induction of cell death after 24 hrs by crystal violet staining based light microscopic analysis; assay type: functional, LN-229
[3] = Solubility of the compound in ethanol; assay type: physicochemical
[4] = Solubility of the compound in chloroform; assay type: physicochemical
[5] = Solubility of the compound in trifluoroacetic acid; assay type: physicochemical
[6] = Solubility of the compound in DMSO/TFA; assay type: physicochemical
[7] = Solubility of the compound in CHCl3/TFA; assay type: physicochemical
[8] = Solubility of the compound in DMSO; assay type: physicochemical

SMILES	solubility [1]	Activity [2]	solubility [3]	further results
COc1cc(NC(=O)C2C(=O)NC(=O)NC2=O)cc(OC)c1OC	Insoluble	100 µg/mL	Insoluble	
CN1C(=O)NC(=O)C(C(=O)Nc2ccc3cc4ccccc4cc3c2)C1=O (configuration not stated)		100 µg/mL		
CN1C(=O)C(C(=O)Nc2ccc(Cl)c(Cl)c2)C(=O)N(C)C1=O		100 µg/mL		
O=C1NC(=O)C(C(=O)Nc2cc(Cl)cc(Cl)c2)C(=O)N1	Insoluble		Insoluble	
O=C1NC(=O)C(C(=O)NNC(=O)Nc2ccc([N+](=O)[O-])cc2)C(=O)N1	Insoluble		Insoluble	solubility [4]: Insoluble; solubility [5]: Soluble; solubility [6]: Soluble; solubility [7]: Soluble; solubility [8]: Insoluble
COc1ccc(NC(=O)C2C(=O)NC(=O)NC2=O)cc1	Insoluble		Insoluble	
CN1C(=O)C(C(=O)Nc2ccc3ccccc3c2)C(=O)N(C)C1=O		100 µg/mL		
CN1C(=O)C(C(=O)Nc2ccc(Cl)cc2Cl)C(=O)N(C)C1=O		100 µg/mL		
O=C1NC(=O)C(C(=O)Nc2cc(Cl)ccc2Cl)C(=O)N1	Insoluble		Insoluble	
O=C1NC(=O)N(c2ccccc2)C(=O)C1C(=O)Nc1ccc(Br)cc1 (configuration not stated)		100 µg/mL		
O=C1NC(=O)C(C(=O)Nc2ccc(O)cc2)C(=O)N1	Insoluble	100 µg/mL	Insoluble	
CN1C(=O)C(C(=O)Nc2ccc(Br)cc2)C(=O)N(C)C1=O		100 µg/mL		
CN1C(=O)C(C(=O)Nc2ccc(C(=O)O)cc2)C(=O)N(C)C1=O		100 µg/mL		
CN1C(=O)C(C(=O)Nc2ccc(-c3ccccc3)cc2)C(=O)N(C)C1=O		100 µg/mL		
O=C1NC(=O)C(C(=O)Nc2ccc([N+](=O)[O-])cc2)C(=O)N1	Insoluble	100 µg/mL	Insoluble	
CN1C(=O)C(C(=O)Nc2cccc(I)c2)C(=O)N(C)C1=O		100 µg/mL		
O=C1NC(=O)C(C(=O)Nc2cccc(Cl)c2Cl)C(=O)N1	Insoluble		Insoluble	
CN1C(=O)C(C(=O)Nc2ccccc2O)C(=O)N(C)C1=O		100 µg/mL		
NC(=O)c1ccc(NC(=O)C2C(=O)NC(=O)NC2=O)cc1	Insoluble		Insoluble	
CCOC(=O)c1ccc(NC(=O)C2C(=O)N(C)C(=O)N(C)C2=O)cc1		100 µg/mL		
O=C1NC(=O)C(C(=O)Nc2ccccc2)C(=O)N1	Insoluble		Insoluble	
O=C1NC(=O)C(C(=O)Nc2ccc3ccccc3c2)C(=O)N1		100 µg/mL		
CN1C(=O)C(C(=O)Nc2ccc([N+](=O)[O-])cc2)C(=O)N(C)C1=O		100 µg/mL		

SMILES	solubility [1]	Activity [2]	solubility [3]	further results
CN1C(=O)C(C(=O)Nc2ccc(O)cc2)C(=O)N(C)C1=O		100 µg/mL		
O=C1NC(=O)C(C(=O)Nc2cccc([N+](=O)[O-])c2)C(=O)N1	Insoluble		Insoluble	
CN1C(=O)NC(=O)C(C(=O)NNC(=O)Nc2cccc(O)c2)C1=O (configuration not stated)	Insoluble		Insoluble	solubility [4]: Insoluble; solubility [5]: Insoluble; solubility [6]: Insoluble; solubility [7]: Insoluble; solubility [8]: Insoluble
O=C1NC(=O)C(C(=O)Nc2ccc(F)cc2)C(=O)N1	Insoluble		Insoluble	
COc1ccc(NC(=O)C2C(=O)NC(=O)N(c3ccccc3)C2=O)cc1 (configuration not stated)		100 µg/mL		
CN1C(=O)C(C(=O)Nc2ccccc2-c2ccccc2)C(=O)N(C)C1=O		100 µg/mL		
O=C1NC(=O)N(c2ccccc2)C(=O)C1C(=O)Nc1ccc(I)cc1 (configuration not stated)		100 µg/mL		
CN1C(=O)NC(=O)C(C(=O)Nc2cccc(O)c2)C1=O (configuration not stated)		100 µg/mL		
O=C1NC(=O)N(c2ccccc2)C(=O)C1C(=O)Nc1ccc(Cl)cc1Cl (configuration not stated)		100 µg/mL		
N#Cc1ccc(NC(=O)NNC(=O)C2C(=O)NC(=O)NC2=O)cc1	Insoluble		Insoluble	solubility [4]: Insoluble; solubility [5]: Soluble; solubility [6]: Soluble; solubility [7]: Soluble; solubility [8]: Insoluble
COc1ccc(NC(=O)C2C(=O)NC(=O)N(C)C2=O)cc1 (configuration not stated)		100 µg/mL		
COc1cc(NC(=O)C2C(=O)NC(=O)N(c3ccccc3)C2=O)cc(OC)c1OC (configuration not stated)		100 µg/mL		
O=C1NC(=O)N(c2ccccc2)C(=O)C1C(=O)Nc1cccc2ccccc12 (configuration not stated)		100 µg/mL		
O=C1NC(=O)N(c2ccccc2)C(=O)C1C(=O)Nc1nc2ccc([N+](=O)[O-])cc2s1 (configuration not stated)		100 µg/mL		
CCOC(=O)c1ccc(NC(=O)C2C(=O)NC(=O)NC2=O)cc1	Insoluble	100 µg/mL	Insoluble	
O=C(O)c1ccc(NC(=O)C2C(=O)NC(=O)N(c3ccccc3)C2=O)cc1 (configuration not stated)		100 µg/mL		
O=C1NC(=O)C(C(=O)NNC(=O)Nc2cccc(O)c2)C(=O)N1	Insoluble		Insoluble	solubility [4]: Insoluble; solubility [5]: Soluble; solubility [6]: Soluble; solubility [7]: Soluble; solubility [8]: Insoluble
COc1ccc2nc(NC(=O)C3C(=O)NC(=O)N(c4ccccc4)C3=O)sc2c1 (configuration not stated)		100 µg/mL		
O=C1NC(=O)C(C(=O)Nc2ccc(Br)cc2)C(=O)N1	Insoluble		Insoluble	
CN1C(=O)NC(=O)C(C(=O)NNC(=O)Nc2ccccc2)C1=O (configuration not stated)	Insoluble		Insoluble	solubility [4]: Insoluble; solubility [5]: Insoluble; solubility [6]: Insoluble; solubility [7]: Insoluble; solubility [8]: Insoluble
O=C1NC(=O)C(C(=O)Nc2ccc(Cl)cc2)C(=O)N1	Insoluble		Insoluble	
O=C1NC(=O)N(c2ccccc2)C(=O)C1C(=O)Nc1ccc2cc3ccccc3cc2c1 (configuration not stated)		100 µg/mL		
O=C1NC(=O)C(C(=O)Nc2ccc(I)cc2)C(=O)N1	Insoluble		Insoluble	

SMILES	solubility [1]	Activity [2]	solubility [3]	further results
CN1C(=O)C(C(=O)NNc2ccc([N+](=O)[O-])cc2)C(=O)N(C)C1=O		100 µg/mL		
COc1ccc(NC(=O)C2C(=O)NC(=O)NC2=O)cc1OC	Insoluble		Insoluble	
CN1C(=O)C(C(=O)Nc2cccc3ccccc23)C(=O)N(C)C1=O		100 µg/mL		
O=C1NC(=O)N(c2ccccc2)C(=O)C1C(=O)Nc1ccccc1 (configuration not stated)		100 µg/mL		
CN1C(=O)C(C(=O)Nc2cc(Cl)ccc2Cl)C(=O)N(C)C1=O		100 µg/mL		
O=C1NC(=O)C(C(=O)NNC(=O)Nc2ccc(O)c([N+](=O)[O-])c2)C(=O)N1	Insoluble		Insoluble	solubility [4]: Insoluble; solubility [5]: Soluble; solubility [6]: Soluble; solubility [7]: Soluble; solubility [8]: Insoluble
O=C1NC(=O)C(C(=O)NNC(=O)Nc2ccc(Cl)c(Cl)c2)C(=O)N1	Insoluble		Insoluble	solubility [4]: Insoluble; solubility [5]: Soluble; solubility [6]: Soluble; solubility [7]: Soluble; solubility [8]: Insoluble
Cc1ccc(NC(=O)C2C(=O)NC(=O)NC2=O)cc1C	Insoluble	100 µg/mL	Insoluble	
CN1C(=O)C(C(=O)Nc2ccc3cc4ccccc4cc3c2)C(=O)N(C)C1=O		100 µg/mL		
CN1C(=O)NC(=O)C(C(=O)Nc2ccc(Cl)cc2)C1=O (configuration not stated)		100 µg/mL		
O=C1NC(=O)C(C(=O)NNC(=O)Nc2ccc(O)cc2)C(=O)N1	Insoluble		Insoluble	solubility [4]: Insoluble; solubility [5]: Soluble; solubility [6]: Soluble; solubility [7]: Soluble; solubility [8]: Insoluble
CN1C(=O)C(C(=O)Nc2cccc(Cl)c2Cl)C(=O)N(C)C1=O		100 µg/mL		
O=C1NC(=O)C(C(=O)Nc2ccc(Cl)c(Cl)c2)C(=O)N1	Insoluble		Insoluble	
O=C1NC(=O)C(C(=O)Nc2ccc(C(=O)O)cc2)C(=O)N1	Insoluble		Insoluble	
O=C1NC(=O)C(C(=O)NNC(=O)Nc2ccc(F)cc2)C(=O)N1	Insoluble		Insoluble	solubility [4]: Insoluble; solubility [5]: Soluble; solubility [6]: Soluble; solubility [7]: Soluble; solubility [8]: Insoluble
O=C1NC(=O)C(C(=O)Nc2cccc(O)c2)C(=O)N1	Insoluble		Insoluble	
O=C1NC(=O)C(C(=O)Nc2cccc3ccccc23)C(=O)N1		100 µg/mL		
CN1C(=O)C(C(=O)Nc2cccc(Br)c2)C(=O)N(C)C1=O		100 µg/mL		
O=C1NC(=O)C(C(=O)Nc2ccc(Cl)cc2Cl)C(=O)N1	Insoluble		Insoluble	
CN1C(=O)C(C(=O)Nc2cccc(O)c2)C(=O)N(C)C1=O		100 µg/mL		
O=C1NC(=O)C(C(=O)Nc2cccc(Br)c2)C(=O)N1	Insoluble	100 µg/mL	Insoluble	
CN1C(=O)NC(=O)C(C(=O)NNC(=O)Nc2ccc(F)cc2)C1=O (configuration not stated)	Insoluble		Insoluble	solubility [4]: Insoluble; solubility [5]: Insoluble; solubility [6]: Insoluble; solubility [7]: Insoluble; solubility [8]: Insoluble
O=C1NC(=O)C(C(=O)Nc2ccc3cc4ccccc4cc3c2)C(=O)N1		100 µg/mL		
